The values below come from patent US9089139B2, “Agri-horticultural pest control compositions comprising 4-(3-butynyl)aminopyrimidine derivatives” (SDS Biotech K. K., priority 2011, dated 2015).

The term melting point denotes the temperature, or range, at which the solid turns liquid. With `CC(C)[Si](C#CCCNc1ncnc2sccc12)(C(C)C)C(C)C`, the melting point lay within 196 to 198 °C. `CC(C)(C)[Si](C)(C)C#CCCNc1ncnc2sccc12` displayed a melting point of 190 to 192 °C. Then `C(#Cc1cncs1)CCNc1ncnc2sccc12` [Compound No. 61], with 156 to 158 °C; and `C(#Cc1csc(-c2ccccc2)n1)CCNc1ncnc2sccc12` [Compound No. 76, 4-[4-(2-Phenylthiazol-4-yl)-3-butynylamino]thieno[2,3-d]pyrimidine], with 134 to 136 °C. The same measure for `C(#Cc1ccccc1)CC(Nc1ncnc2ccccc12)c1ccccc1` (stereo not shown) [Compound No. 301, 4-[(1,4-diphenyl-3-butynyl)amino]quinazoline]: 141 to 143 °C; for `Cc1cccc(C#CCCNc2ncnc3sccc23)c1` [compound 18]: 120 to 123 °C; for `COc1ccc(C#CCCNc2ncnc3sccc23)cc1OC` [compound 24]: 182 to 184 °C.

As to `FC(F)(F)c1cccc(C#CCCNc2ncnc3sccc23)c1` [compound 26], the melting point is 123 to 125 °C. Consider `FC(F)(F)c1cc(C#CCCNc2ncnc3sccc23)cc(C(F)(F)F)c1` [compound 28], for which the melting point lay in the range of 163 to 166 °C.

Molecule `COC(=O)c1cccc(C#CCCNc2ncnc3sccc23)c1` [compound 30] had a melting point of 163 to 166 °C. In turn, `O=[N+]([O-])c1cccc(C#CCCNc2ncnc3sccc23)c1` [compound 39] registered a melting point of 171 to 172 °C. Then `O=[N+]([O-])c1ccc(C#CCCNc2ncnc3sccc23)cc1` [compound 40], with 184 to 185 °C; and `Fc1ccc(C#CCCNc2ncnc3sccc23)c(F)c1` [compound 41], with 177 to 178 °C; and `Fc1cccc(F)c1C#CCCNc1ncnc2sccc12` [compound 42], with 179 to 181 °C. `Fc1cc(C#CCCNc2ncnc3sccc23)cc(F)c1F` [compound 43] came in with a melting point of 158 to 159 °C. Molecule `C(#Cc1cccnc1)CCNc1ncnc2sccc12` [compound 56] came in with a melting point of 138 to 140 °C. The same measure for `C(#Cc1ccncc1)CCNc1ncnc2sccc12` [compound 57]: 140 to 141 °C; for `Cc1cc(C)nc(C#CCCNc2ncnc3sccc23)n1` [compound 59]: 112 to 113 °C; for `C(#Cc1nccs1)CCNc1ncnc2sccc12` [compound 62]: 128 to 129 °C. For the molecule `C(#Cc1cscn1)CCNc1ncnc2sccc12` [compound 63], the melting point amounted to 174 °C. `Cc1scnc1C#CCCNc1ncnc2sccc12` [compound 65]: the melting point was in the range of 148 to 150 °C. Then `Cc1nc(C#CCCNc2ncnc3sccc23)cs1` [compound 66], with 160 to 161 °C; and `OCc1nc(C#CCCNc2ncnc3sccc23)cs1` [compound 70], with 193 °C. The same measure for `CC(=O)OCc1nc(C#CCCNc2ncnc3sccc23)cs1` [compound 73]: 128 to 129 °C; for `C(#Cc1csc(-c2ccco2)n1)CCNc1ncnc2sccc12` [compound 77]: 53 to 55 °C; for `C(#Cc1csc(-c2ccoc2)n1)CCNc1ncnc2sccc12` [compound 78]: 140 to 142 °C.

For the molecule `C(#Cc1csc(-c2ccsc2)n1)CCNc1ncnc2sccc12` [compound 80], the melting point lay in the range of 55 to 56 °C.

Molecule `C(#Cc1csc(-c2cccnc2)n1)CCNc1ncnc2sccc12` [compound 81] gave a melting point of 175 to 177 °C. The same measure for `C=C(C#CCCNc1ncnc2ccccc12)CO` [compound 92]: 139 °C; for `C(#Cc1ccccc1)CCNc1ncnc2ccccc12` [compound 96]: 120 to 122 °C; for `C=C(C)CCc1ccccc1C#CCCNc1ncnc2ccccc12` [compound 105]: 92 to 94 °C. For the molecule `CSc1cccc(C#CCCNc2ncnc3ccccc23)c1` [compound 116], the melting point fell in the range of 141 to 142 °C. Molecule `CCOc1ccccc1C#CCCNc1ncnc2ccccc12` [compound 118] showed a melting point of 119 to 120 °C.

`CS(=O)(=O)c1ccc(C#CCCNc2ncnc3ccccc23)cc1` [compound 120]: the melting point fell in the range of 164 to 165 °C. Then `CCOC(=O)c1ccc(C#CCCNc2ncnc3ccccc23)cc1` [compound 129], with 137 to 138 °C. In the case of `OCc1cccc(C#CCCNc2ncnc3ccccc23)c1` [compound 131], the melting point was 113 to 115 °C.

`OCc1ccc(C#CCCNc2ncnc3ccccc23)cc1` [compound 132]: the melting point lay in the range of 69 to 71 °C. Then `OC(c1ccccc1C#CCCNc1ncnc2ccccc12)C(F)(F)F` (stereo not shown) [compound 138], with 183 to 187 °C; and `COCc1cc(F)c(F)cc1C#CCCNc1ncnc2ccccc12` [compound 146], with 121 to 125 °C; and `C(#Cc1ccc(OC2CCCCO2)cc1)CCNc1ncnc2ccccc12` (stereo not shown) [compound 156], with 163 to 165 °C.

On to `Fc1cc(Cl)ccc1C#CCCNc1ncnc2ccccc12` [compound 164], for which the melting point lay in the range of 198 to 199 °C. `N#Cc1c(F)cccc1C#CCCNc1ncnc2ccccc12` [compound 165]: the melting point lay in the range of 163 to 164 °C. `Fc1ccc(C#CCCNc2ncnc3ccccc23)cc1F` [compound 166] registered a melting point of 161 to 162 °C.

Consider `Clc1cccc(C#CCCNc2ncnc3ccccc23)c1Cl` [compound 171], for which the melting point lay within 175 to 176 °C.

On to `Clc1ccc(C#CCCNc2ncnc3ccccc23)c(Cl)c1` [compound 172], for which the melting point was in the range of 182 to 183 °C. As for `Clc1ccc(Cl)c(C#CCCNc2ncnc3ccccc23)c1` [compound 173], the melting point was 176 to 177 °C. Consider `Clc1cccc(Cl)c1C#CCCNc1ncnc2ccccc12` [compound 174], for which the melting point fell in the range of 153 to 155 °C.

`Clc1ccc(C#CCCNc2ncnc3ccccc23)cc1Cl` [compound 175] yielded a melting point of 147 to 148 °C. The same measure for `FC(F)(F)c1ccc(Cl)c(C#CCCNc2ncnc3ccccc23)c1` [compound 176]: 144 to 145 °C; for `COc1ccc(Cl)cc1C#CCCNc1ncnc2ccccc12` [compound 179]: 147 to 149 °C; for `C(#Cc1ccc2ccccc2c1)CCNc1ncnc2ccccc12` [compound 183]: 159 to 160 °C. Regarding `Fc1cncc(C#CCCNc2ncnc3ccccc23)c1` [compound 193], the melting point was in the range of 145 to 150 °C. The same measure for `Clc1ncccc1C#CCCNc1ncnc2ccccc12` [compound 195]: 168 to 170 °C.

Consider `FC(F)(F)c1ccc(C#CCCNc2ncnc3ccccc23)cn1` [compound 198], for which the melting point fell in the range of 134 to 139 °C. The same measure for `OCc1cnccc1C#CCCNc1ncnc2ccccc12` [compound 201]: 182 to 186 °C; for `OCc1ccc(C#CCCNc2ncnc3ccccc23)cn1` [compound 202]: 183 to 185 °C. Then `OCc1cc(C#CCCNc2ncnc3ccccc23)co1` [compound 209], with 135 to 147 °C; and `CCOC(=O)c1cnc(C#CCCNc2ncnc3ccccc23)s1` [compound 213], with 113 to 114 °C. The same measure for `CCOC(=O)c1sc(C#CCCNc2ncnc3ccccc23)nc1C` [compound 214]: 139 to 140 °C; for `COc1cccc(Oc2nc(C#CCCNc3ncnc4ccccc34)cs2)c1` [compound 216]: 77 to 79 °C; for `COc1ccc(Oc2nc(C#CCCNc3ncnc4ccccc34)cs2)cc1` [compound 217]: 150 to 152 °C. `FC(F)(F)c1ccccc1Oc1nc(C#CCCNc2ncnc3ccccc23)cs1` [compound 218] showed a melting point of 159 to 161 °C.

Consider `FC(F)(F)c1cccc(Oc2nc(C#CCCNc3ncnc4ccccc34)cs2)c1` [compound 219], for which the melting point was in the range of 106 to 108 °C. As for `FC(F)(F)c1ccc(Oc2nc(C#CCCNc3ncnc4ccccc34)cs2)cc1` [compound 220], the melting point fell in the range of 137 to 139 °C. The same measure for `N#Cc1cccc(Oc2nc(C#CCCNc3ncnc4ccccc34)cs2)c1` [compound 222]: 137 to 139 °C; for `N#Cc1ccc(Oc2nc(C#CCCNc3ncnc4ccccc34)cs2)cc1` [compound 223]: 55 to 57 °C. In turn, `Fc1cccc(Oc2nc(C#CCCNc3ncnc4ccccc34)cs2)c1` [compound 225] returned a melting point of 134 to 136 °C. As to `CC(CC#Cc1cscn1)Nc1ncnc2ccccc12` (stereo not shown) [compound 291], the melting point is 142 to 145 °C. The same measure for `FC(F)(F)c1ccccc1C#CCC(Nc1ncnc2ccccc12)c1ccccc1` (stereo not shown) [compound 302]: 150 to 152 °C; for `FC(F)(F)c1ccccc1C#CCCNc1ncnc2cc(Cl)ccc12` [compound 308]: 153 to 154 °C. Then `COCc1ccccc1C#CCCNc1ncnc2ccc(I)cc12` [compound 322], with 121 to 123 °C.

In turn, `COCc1ccccc1C#CCCNc1ncnc2c(Cl)cc(Cl)cc12` [compound 338] displayed a melting point of 161 to 162 °C.

The molecule `Clc1ncnc(NCCC#Cc2ccccc2)c1Cl` [compound 357] registered a melting point of 122 to 123 °C. For the molecule `Clc1cc(NCCC#Cc2ccccc2)ncn1` [compound 358], the melting point lay in the range of 118 to 120 °C. `Clc1ncnc(NCCC#Cc2ccccc2)c1Cc1ccccc1` [compound 372] displayed a melting point of 157 to 158 °C.

In the case of `C(#Cc1ccccc1)CCNc1ncnc2[nH]cnc12` [compound 378], the melting point is 207 to 208 °C.
